Experimental data as given in article PMC6013238, “Development of novel NEMO-binding domain mimetics for inhibiting IKK/NF-κB activation” (PLoS Biology, 2018).

System: NF-κB DNA binding activity
Test: EMSA of NF-κB DNA binding activity in muscle of mdx mice after a single i.p. dose
Type: in vivo, mouse
Conditions: for NF-κB DNA binding activity in quadriceps (EMSA): mdx mice, single i.p. 10 mg/kg, 1 h and 2 h post injection
Method: To confirm that the NBD mimetics reduce IKK kinase activity, phosphorylation of IκBα by IKK in response to 10 ng/ml of TNF-α was measured by western blot at 0, 5, and 10 min after stimulation. […] To determine whether the mimetics also reduce NF-κB DNA binding activity, electrophoretic mobility shift assay (EMSA) was conducted both in vitro and in vivo. […] The addition of acetonitrile increased the stability of both ZINC compounds, especially ZINC 5 (Fig 3D).
Fig 3 Two identified small molecules reduce NF-κB DNA binding activity in vivo and in vitro. (A) Levels of p-IκBα with or without treatment in response to TNF-α were determined by western blot analysis. HEK293 cells were pretreated with DMSO, ZINC12909780 (100 μM), and ZINC5 (100 μM) for 30 min followed by the stimulation of 10 ng/ml of TNF-α for 0, 5, and 10 min. Cell lysates were prepared for immunoblot against p-IκBα. GAPDH was used as a loading control. (B) EMSA analysis detecting NF-κB DNA binding activity was performed in C2C12 myoblasts. Cells were pretreated with 200 μM of DMSO, ZINC12909780, and ZINC5 in serum-free media for 1 h. TNF-α was then added to a final concentration of 10 ng/ml and incubated for 15 min. Nuclear extract was obtained for EMSA analysis. (C) EMSA analysis assessing NF-κB DNA binding activity in vivo was performed with quadriceps from mdx mice. […] Quadriceps was harvested at 1 h and 2 h post injection for EMSA analysis. (D) The time-course pharmacokinetics of ZINC5 and ZINC12909780 in FBS media or FBS media containing acetonitrile. Underlying data can be found in S1 Data. EMSA, electrophoretic mobility shift assay; HEK293, human embryonic kidney 293 cells; i.p., intraperitoneal; NF-κB, nuclear factor κB; t1/2, half-life; TNF-α; tumor necrosis factor α. […]
Supplementary file pbio.2004663.s005.tif: S4 Fig Chronic treatment with NBD mimetics improves muscle pathology by inhibiting NF-κB DNA binding activity in mdx mice. (A) Quantification of percentage of centralized myonuclei. […]

| Structure (SMILES) | NF-κB DNA binding in TA muscle (EMSA) (9-wk-old mdx mice, single injection 30 mg/kg i.p., 2 h post injection) | NF-κB DNA binding activity in quadriceps (EMSA) |
| --- | --- | --- |
| O=C(CNc1ccc(Cl)cn1)NCCc1cccc(Br)c1 [SR12343] | reduction in NF-κB DNA binding | – |
| Nc1ncccc1C(=O)OCC(=O)Nc1ccc(Cl)cc1F [ZINC12909780] | – | inhibited NF-κB DNA binding activity |
| O=C(COC(=O)Cc1ccccc1F)Nc1ccc(Cl)cn1 [ZINC5] | – | inhibited NF-κB DNA binding activity |
